Reference: ChEMBL document CHEMBL1201862, “PubChem BioAssay data set” (2004)
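Test compounds were applied to cells in 96-well plates for 48 hours at 5 doses. Here, GI50 denotes the concentration required for 50% inhibition of growth.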 The source made the active and inactive calls. No stated cut-off is given here; in the data, active = GI50 up to about 1.1 µM and inactive = higher.

Assays:
Assay in all cases: NCI-60 cell line screen, 48 h
NCI-H522 = tested on: NCI-H522
A498 = tested on: A498
SF-268 = tested on: SF-268
SK-MEL-5 = tested on: SK-MEL-5
RPMI-8226 = tested on: RPMI-8226
A549 = tested on: A549
OVCAR-3 = tested on: OVCAR-3
OVCAR-5 = tested on: OVCAR-5
SF-539 = tested on: SF-539
SW-620 = tested on: SW-620
UACC-257 = tested on: UACC-257
EKVX = tested on: EKVX
Malme-3M = tested on: Malme-3M
K562 = tested on: K562
HOP-92 = tested on: HOP-92
LOX IMVI = tested on: LOX IMVI
SF-295 = tested on: SF-295
SR = tested on: SR
ACHN = tested on: ACHN
TK-10 = tested on: TK-10

Row | SMILES | GI50 (NCI-H522) | GI50 (A498) | GI50 (SF-268) | GI50 (SK-MEL-5) | GI50 (RPMI-8226) | GI50 (A549) | GI50 (OVCAR-3) | GI50 (OVCAR-5) | GI50 (SF-539) | GI50 (SW-620) | GI50 (UACC-257) | GI50 (EKVX) | GI50 (Malme-3M) | GI50 (K562) | GI50 (HOP-92) | GI50 (LOX IMVI) | GI50 (SF-295) | GI50 (SR) | GI50 (ACHN) | GI50 (TK-10)
1 | CCCC[S+]([O-])CC(CO)NC(=O)/C=C/c1c(C)[nH]c(=O)[nH]c1=O (configuration not stated) | 5.77 µM (inactive) | 7.8 µM (inactive) | 2.42 µM (inactive) | 4.3 µM (inactive) | 9.02 µM (inactive) | 10.8 µM (inactive) | 5 µM (inactive) | 14.7 µM (inactive) | 7.38 µM (inactive) | 16.5 µM (inactive) | 11 µM (inactive) | 8.47 µM (inactive) | 3.14 µM (inactive) | 8.97 µM (inactive) | 11.8 µM (inactive) | 7.62 µM (inactive) | 8.38 µM (inactive) | – | – | –
2 | N/C(=N\O)N/N=C\c1ccc(O)c(O)c1O | 24.1 µM (inactive) | > 30.8 µM (inactive) | 60.1 µM (inactive) | 19.8 µM (inactive) | 41.5 µM (inactive) | > 58.7 µM (inactive) | 22.7 µM (inactive) | > 48.1 µM (inactive) | > 100 µM (inactive) | 19.7 µM (inactive) | 63.7 µM (inactive) | > 78.5 µM (inactive) | > 100 µM (inactive) | 17.8 µM (inactive) | > 55.3 µM (inactive) | 16.3 µM (inactive) | 12.2 µM (inactive) | – | – | –
3 | S=c1sc2c(s1)SC(c1ccccc1)CS2 (configuration not stated) | > 100 µM (inactive) | > 100 µM (inactive) | > 100 µM (inactive) | > 100 µM (inactive) | > 100 µM (inactive) | > 100 µM (inactive) | > 66.2 µM (inactive) | > 100 µM (inactive) | > 100 µM (inactive) | > 100 µM (inactive) | > 21.7 µM (inactive) | > 100 µM (inactive) | > 100 µM (inactive) | > 100 µM (inactive) | > 64.4 µM (inactive) | > 86.3 µM (inactive) | 25.8 µM (inactive) | – | – | –
4 | CCOC(=O)C1=NN(c2ccc(C)cc2)C2=CC(C)=NN(C)C(=S)N21 | 12.2 µM (inactive) | – | 85.5 µM (inactive) | > 100 µM (inactive) | > 100 µM (inactive) | 70.6 µM (inactive) | 60 µM (inactive) | 88.5 µM (inactive) | 64 µM (inactive) | 54.2 µM (inactive) | > 100 µM (inactive) | 81.1 µM (inactive) | – | > 100 µM (inactive) | > 10 µM (inactive) | 26.9 µM (inactive) | > 100 µM (inactive) | > 100 µM (inactive) | 43.5 µM (inactive) | 36.1 µM (inactive)
5 | COS(=O)c1cc(Cl)cc(Cl)c1O (configuration not stated) | 18 µM (inactive) | > 100 µM (inactive) | > 100 µM (inactive) | – | – | – | > 100 µM (inactive) | > 100 µM (inactive) | > 100 µM (inactive) | – | > 100 µM (inactive) | > 100 µM (inactive) | > 100 µM (inactive) | > 100 µM (inactive) | – | > 100 µM (inactive) | – | > 100 µM (inactive) | > 100 µM (inactive) | > 100 µM (inactive)
6 | O=Nn1c2ccccc2c2cc([N+](=O)[O-])ccc21 | 10.9 µM (inactive) | 12.4 µM (inactive) | 12.7 µM (inactive) | 30.5 µM (inactive) | 13.3 µM (inactive) | 19.9 µM (inactive) | 17.9 µM (inactive) | 16.5 µM (inactive) | 20.3 µM (inactive) | 13.7 µM (inactive) | 22.9 µM (inactive) | 11.2 µM (inactive) | 12.9 µM (inactive) | 11.1 µM (inactive) | 14.3 µM (inactive) | 14.7 µM (inactive) | 15.2 µM (inactive) | – | 14.1 µM (inactive) | 15.4 µM (inactive)
7 | O=C1c2cc3c(cc2CC1Cc1ccc2c(c1)CCC2)CCC3 (configuration not stated) | 24.1 µM (inactive) | 32.3 µM (inactive) | 35.6 µM (inactive) | 57.8 µM (inactive) | 40.5 µM (inactive) | 64.4 µM (inactive) | 63.4 µM (inactive) | > 100 µM (inactive) | 33.3 µM (inactive) | 45.5 µM (inactive) | 87.7 µM (inactive) | > 100 µM (inactive) | 79.6 µM (inactive) | 69.5 µM (inactive) | – | 66.1 µM (inactive) | 23.5 µM (inactive) | 29.9 µM (inactive) | 48.4 µM (inactive) | > 100 µM (inactive)
8 | CCOC(=O)Cc1cnc(NC(NC(=O)CC)(C(F)(F)F)C(F)(F)F)s1 | > 100 µM (inactive) | > 100 µM (inactive) | > 100 µM (inactive) | – | > 100 µM (inactive) | – | > 100 µM (inactive) | > 100 µM (inactive) | > 100 µM (inactive) | – | > 100 µM (inactive) | > 100 µM (inactive) | > 100 µM (inactive) | > 100 µM (inactive) | – | > 100 µM (inactive) | – | > 100 µM (inactive) | > 100 µM (inactive) | > 100 µM (inactive)
9 | CNC(=O)OC(C)CN1c2ccccc2Sc2ccc(Cl)cc21 (configuration not stated) | > 10 µM (inactive) | > 10 µM (inactive) | > 10 µM (inactive) | > 10 µM (inactive) | > 10 µM (inactive) | > 10 µM (inactive) | > 10 µM (inactive) | > 10 µM (inactive) | > 10 µM (inactive) | > 10 µM (inactive) | – | > 10 µM (inactive) | > 10 µM (inactive) | > 10 µM (inactive) | – | > 10 µM (inactive) | > 10 µM (inactive) | > 10 µM (inactive) | > 10 µM (inactive) | > 10 µM (inactive)
10 | COc1cc(/N=N\c2cccc(S(=O)(=O)O)c2)ccc1/N=N\c1ccc(/C=C/c2ccc(-n3on3-c3ccc(/C=C/c4ccc(/N=N/c5ccc(/N=N\c6cccc(S(=O)(=O)O)c6)cc5OC)cc4S(=O)(=O)O)c(S(=O)(=O)O)c3)cc2S(=O)(=O)O)c(S(=O)(=O)O)c1 | > 100 µM (inactive) | > 100 µM (inactive) | > 100 µM (inactive) | > 100 µM (inactive) | > 100 µM (inactive) | > 100 µM (inactive) | > 100 µM (inactive) | > 100 µM (inactive) | > 100 µM (inactive) | > 100 µM (inactive) | > 100 µM (inactive) | > 100 µM (inactive) | > 100 µM (inactive) | > 100 µM (inactive) | > 86.1 µM (inactive) | > 100 µM (inactive) | > 100 µM (inactive) | – | – | –
11 | COc1cc(C2c3cc4c(cc3[C@@H](Nc3ccc(Oc5ccccc5)cc3)C3COC(=O)[C@H]23)OCO4)cc(OC)c1O (some centres not stated) | 2.25 µM (inactive) | 1.24 µM (inactive) | 2.52 µM (inactive) | 1.58 µM (inactive) | 1.08 µM (active) | 0.916 µM (active) | > 62.2 µM (inactive) | > 61 µM (inactive) | 0.536 µM (active) | 2.07 µM (inactive) | 1.22 µM (inactive) | > 39.7 µM (inactive) | 3.7 µM (inactive) | 1.14 µM (inactive) | – | 2.43 µM (inactive) | 1.27 µM (inactive) | – | – | –
